{"source": "patent US20120003177A1", "about": "(priority 2008, published 2012)", "key": {"[1]": {"tested_on": "SKOV-3 human ovarian cancer cell line", "assay": "MTT cytotoxicity of polycurcumins to SKOV-3 cells (72 h treatment)", "conditions": "for IC50: Homo sapiens", "description": "The human ovarian carcinoma SKOV-3 cell line was purchased from American type culture collection (ATCC). Cells were cultured in RPMI 1640 medium supplemented with 10% fetal bovine serum (HyClone, Logan, Utah) and grown at 37° C. in a humidified atmosphere of 5% CO2 (v/v) in air. All of the experiments involving cells were performed on cells in the exponential growth phase.\nThe cytotoxicity of polycurcumins was determined using the standard 3-(4,5-dimethylthiazolyl-2)-2,5-diphenyltetrazolium bromide (MTT) cell proliferation kit (ATCC, Manassas, Va.) according to manufacturer's protocol. In brief, SKOV-3 cells were seeded onto 96-well plates with a density of 15,000 cells per well and incubated at 37° C. in a humidified atmosphere of 95% air and 5% CO2 for 16 h. The medium in each well was replaced with 200 μL of culture medium containing the treatments and cultured for 72 h. The medium in each well was then replaced with fresh media and the cells were incubated for another 24 h. The incubation medium was then replaced with 100 μL of fresh medium and 10 μL of MIT reagent. After 6 h, 100 μL of detergent reagent was added to each well and incubated for 18 h at room temperature in the dark until all the crystals dissolved. The absorbance intensity at 570 nm was recorded on a Bio-Rad (model 550) microplate reader. Cell viability is defined as the percent live cells compared with untreated controls.\nFor each polycurcumin tested, the commoners such as 3,3′-dithiodipropionic acid, pyromellitic dianhydride, tri(ethylene glycol) divinyl ether and PEG, were used as controls."}, "[2]": {"conditions": "cited from earlier work"}, "[3]": {"tested_on": "DU145 prostate carcinoma, A549 lung carcinoma, and HT29 colon carcinoma", "conditions": "read-out: IC50 (50% inhibitory concentration); variety of cancer cell lines; cited from earlier work"}, "[4]": {"conditions": "PBS at pH 7.2; cited from earlier work"}}, "note": "Entries after “also recorded” stand apart in the source; their conditions may differ. Like-named read-outs stand apart in the source and are kept apart here."}
{"compound": "C=COCCOCCOCCOC=C", "note": "[tri(ethylene glycol) divinyl ether]", "values": [{"measurement": "cytotoxicity of comonomer controls against SKOV-3 cells", "setting": "[1]; SKOV-3, MTT, comonomers as controls", "value": "no significant cytotoxicity"}]}
{"compound": "COc1cc(C=CC(=O)CC(=O)C=Cc2ccc(O)c(OC)c2)ccc1O", "note": "[Curcumin, 1,7-bis-(4-hydroxy-3-methoxyphenyl)-hepta-1,6-diene-3,5-dione]", "values": [{"measurement": "IC50", "setting": "[1]; SK-OV-3, read-out: IC50, curcumin equivalent dose", "value": 21, "unit": "µM"}, {"measurement": "IC50", "setting": "[1]; SK-OV-3, read-out: IC50-C (IC50 in terms of curcumin-equivalent dose)", "value": 7.8, "unit": "µg/mL"}, {"measurement": "solubility of free curcumin in water, in words", "setting": "[2]", "value": "almost insoluble in water; also recorded: practically insoluble in water"}, {"measurement": "IC50", "setting": "[3]", "value": "10 to 75", "unit": "µM"}, {"measurement": "half life (t1/2)", "setting": "[4]", "value": "less than 10 min"}]}
{"compound": "polyethylene glycol [PEG]", "values": [{"measurement": "cytotoxicity of comonomer controls against SKOV-3 cells", "setting": "[1]", "value": "no significant cytotoxicity"}]}
{"compound": "O=c1oc(=O)c2cc3c(=O)oc(=O)c3cc12", "note": "[pyromellitic dianhydride]", "values": [{"measurement": "cytotoxicity of comonomer controls against SKOV-3 cells", "setting": "[1]", "value": "no significant cytotoxicity"}]}
{"compound": "O=C(O)CCSSCCC(=O)O", "note": "[3,3′-dithiodipropionic acid]", "values": [{"measurement": "cytotoxicity of comonomer controls against SKOV-3 cells", "setting": "[1]", "value": "no significant cytotoxicity"}]}
